Measurements: EP0301034B1, “USE OF 1-(3'TRIFLUOROMETHYL 4'-NITROPHENYL) 4,4-DIMETHYL IMIDAZOLINE 2, 5-DIONE IN THE MANUFACTURE OF A MEDICAMENT FOR THE TREATMENT OF HORMONE-DEPENDENT CANCERS OTHER THAN CANCERS OF THE PROSTATE, THE SKIN AND THE COLON” (ROUSSEL-UCLAF, priority 1986, dated 1988)

Columns and labels:
[1] = tested on: cellules tumorales mammaires MCF-7; test: Antiproliferative activity on growth of MCF-7 mammary tumour cells (DNA assay with DABA fluorimetry); format: cell-based; conditions: 10⁻⁵M; end of experiment J6; SVF medium; inhibition of DNA increase
Procedure: (§1) L'activité de la 1-(3'-trifluorométhyl 4'-nitrophényl) 4,4-diméthyl imidazoline 2,5-dione a été déterminée par la mesure de son activité antiproliférative sur la croissance de cellules tumorales mammaires MCF-7 et T 47-D.
(§2) Les lignées MCF-7 et T 47-D sont maintenues en culture en milieu SVF (1) à 37 °C en atmosphère humide contenant 5% CO₂. Les cellules à subconfluence sont récoltées par trypsination (trypsine 0,05%, EDTA 0,02%) puis rincées par centrifugation douce. Un échantillon des cellules en suspension est compté sur cellule de Malassez.
(§3) Les cellules resuspendues dans le milieu SVF sont ensemencées à raison de 30.000 cellules par puits dans des plaques multipuits (24 puits de 2,5 cm2). […]
(§4) L'ADN est dosé par une méthode fluorimétrique utilisant le DABA (Acide 3,5 diaminobenzoïque) (2) 150 microlitres de DABA sont ajoutés dans chaque puits; les plaques sont alors incubées 45 mn à 56°C, puis 1,5 ml d'HCl 1N sont ajoutés. La fluorescence est mesurée à l'aide de fluorimètre (longueur excitatrice : 400 nm, longueur d'onde d'émission : 500 nm). La quantité d'ADN par puits est évaluée par rapport à une gamme étalon obtenue en traitant dans les mêmes conditions un standard d'ADN du thymus de veau.

[2] = tested on: cellules tumorales mammaires T 47-D; test: Antiproliferative activity on growth of T 47-D mammary tumour cells (DNA assay with DABA fluorimetry); format: cell-based; conditions: 10⁻⁵M; end of experiment J12; SVF medium; inhibition of DNA increase
Procedure: as §1, §2, §3, §4

With `CC1(C)NC(=O)N(c2ccc([N+](=O)[O-])c(C(F)(F)F)c2)C1=O` [1-(3'trifluorométhyl 4'-nitrophényl) 4,4-diméthyl imidazoline 2,5-dione] the “inhibe la croissance des cellules MCF-7” value [1] was 30% and the “inhibe la croissance des cellules T 47-D” value [2] was 30%.
